Source: patent publication US20090232771A1, “Method of controlling cell functions” (Takeda Pharmaceutical Company Limited, priority 2004, published 2009)

Key:
[1] = system: human mesenchymal stem cells; experiment: Differentiation of human mesenchymal stem cells into adipocytes, Oil Red O staining of accumulated intracellular lipids; type: cell-based; details: cholecystokinin 100 nM in differentiation induction medium; compared to cholecystokinin-free control; FIG. 1
Description: Human mesenchymal stem cells were incubated in a 24-well culture plate until the cells became confluent. Then, the medium was exchanged with a differentiation induction medium prepared by adding cholecystokinin (100 nM) to high-glucose DMEM medium supplemented with insulin, dexamethasone, isobutylmethylxanthine, indomethacin, antibiotic and 10% fetal bovine serum, and incubation was continued for 3 days. For control, a cholecystokinin-free differentiation induction medium was used. After incubation was conducted for 3 days in a high-glucose DMEM medium (adipocyte maintenance medium) supplemented only with insulin, antibiotic and 10% fetal bovine serum, the same treatments (the induction and the maintenance, respectively, for 3 days) were repeated. Accumulated intracellular lipids were visualized by staining with Oil Red 0 dye.

[2] = system: human mesenchymal stem cells; experiment: Osteoblast differentiation induction from human mesenchymal stem cells, accumulated calcium level per well (Calcium C-Test); type: cell-based; details: oncostatin M added (10 ng/ml); irrespective of presence or absence of FBS; compared to 10% FBS-containing differentiation medium without oncostatin M; FIG. 2
Description: Human mesenchymal stem cells were purchased from Cambrex, Inc. Dulbecco's Modified Eagle Medium (DMEM, Invitrogen) containing 1.0 g/l of glucose and supplemented with 10% fetal bovine serum (Stem Cell Technologies), 2 mM L-glutamine (Invitrogen), 100 U/ml penicillin and 100 μg/ml streptomycin was used as a maintenance medium. The maintenance medium supplemented with 0.1 μM dexamethasone, 0.05 mM ascorbic acid and 10 mM β-glycerophosphate (=10% FBS-containing differentiation medium) or fetal bovine serum-free maintenance medium supplemented with the three components above was used as a differentiation medium (=serum-free differentiation medium). […] Subsequently, the medium was exchanged every 4 days, and the accumulated calcium level per well was quantified on day 10 of the incubation (Calcium C-Test, Wako Pure Chemical).

Molecule	lipid accumulation (accumulated intracellular lipids, Oil Red O staining) compared to control [1]	accumulation of calcium per well on day 10 of the incubation [2]
cholecystokinin (DYMGWMDF) [ligand of the cholecystokinin receptor]	lipid accumulation is enhanced	
oncostatin M (protein, UniProt P13725 26-221, looked up, differentiation induction factor for osteoblasts from human mesenchymal stem cells in serum-free medium) Oncostatin-M: AAIGSCSKEYRVLLGQLQKQTDLMQDTSRLLDPYIRIQGLDVPKLREHCRERPGAFPSEETLRGLGRRGFLQTLNATLGCVLHRLADLEQRLPKAQDLERSGLNIEDLEKLQMARPNILGLRNNIYCMAQLLDNSDTAEPTKAGRGASQPPTPTPASDAFQRKLEGCRFLHGYHRFMHSVGRVFSKWGESPNRSRR		marked accumulation of calcium was observed
